According to US20230365592A1 (Agios Pharmaceuticals, Inc., priority 2022, published 2023):
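Also: after compound treatment, cells received sepiapterin plus isotope-labelled Phenylalanine for 4 hours, then labelled Tyrosine in the medium was quantified, 10-point 2-fold dilution series run in duplicate.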

Each compound was assayed against T1, human PAH with the R408W mutation (Homo sapiens, UniProt P00439, R408W) (assay: Cell Based Phenylalanine Flux Assay). Details: A375 cells expressing human R408W PAH; 24 hrs compound incubation; 13C-Tyrosine by LC-MS; average where tested multiple times; read-out: AC50.
T1 construct: expressed in transfected cells
T1 sequence (P00439 1-452 R408W): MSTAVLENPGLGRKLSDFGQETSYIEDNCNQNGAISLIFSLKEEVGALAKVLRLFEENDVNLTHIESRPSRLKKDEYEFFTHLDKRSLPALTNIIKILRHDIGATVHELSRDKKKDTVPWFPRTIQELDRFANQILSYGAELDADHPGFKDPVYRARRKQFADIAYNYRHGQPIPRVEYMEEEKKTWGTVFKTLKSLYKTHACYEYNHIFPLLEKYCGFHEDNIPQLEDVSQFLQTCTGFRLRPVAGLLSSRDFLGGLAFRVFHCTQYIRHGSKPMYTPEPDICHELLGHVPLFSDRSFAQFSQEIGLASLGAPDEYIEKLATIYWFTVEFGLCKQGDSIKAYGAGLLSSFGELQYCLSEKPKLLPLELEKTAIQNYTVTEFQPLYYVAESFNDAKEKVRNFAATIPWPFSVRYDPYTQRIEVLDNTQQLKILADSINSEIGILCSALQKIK
For `Cc1cccn2nc([C@@H]3c4nc[nH]c4CCN3C(=O)c3nnc(-c4ccncc4)o3)cc12` [Example 850, (S)-(4-(4-methylpyrazolo[1,5-a]pyridin-2-yl)-6,7-dihydro-1H-imidazo[4,5-c]pyridin-5(4H)-yl)(5-(pyridin-4-yl)-1,3,4-oxadiazol-2-yl)methanone], the AC50 was less than 0.5 µM. For `Cc1cccn2nc([C@H]3c4nc[nH]c4CCN3C(=O)c3nnc(-c4ccncc4)o3)cc12` [Example 851, (R)-(4-(4-methylpyrazolo[1,5-a]pyridin-2-yl)-6,7-dihydro-1H-imidazo[4,5-c]pyridin-5(4H)-yl)(5-(pyridin-4-yl)-1,3,4-oxadiazol-2-yl)methanone], the AC50 was greater than 5 µM. For `Cc1cccn2nc([C@@H]3c4nc[nH]c4CCN3C(=O)c3nnc(-c4cnn(S(=O)(=O)C5CC5)c4)o3)cc12` [Example 852, (S)-(5-(1-(cyclopropylsulfonyl)-1H-pyrazol-4-yl)-1,3,4-oxadiazol-2-yl)(4-(4-methylpyrazolo[1,5-a]pyridin-2-yl)-6,7-dihydro-1H-imidazo[4,5-c]pyridin-5(4H)-yl)methanone], the AC50 was 0.5 to 1 µM. `Cc1cccn2nc([C@@H]3c4nc[nH]c4CCN3C(=O)c3nnc(-c4cc(C)n(C)n4)o3)cc12` [Example 854, (S)-(5-(1,5-dimethyl-1H-pyrazol-3-yl)-1,3,4-oxadiazol-2-yl)(4-(4-methylpyrazolo[1,5-a]pyridin-2-yl)-6,7-dihydro-1H-imidazo[4,5-c]pyridin-5(4H)-yl)methanone] was tested, and the AC50 was less than 0.5 µM. `Cc1cccn2nc([C@H]3c4nc[nH]c4CCN3C(=O)c3nnc(-c4cc(C)n(C)n4)o3)cc12` [Example 855, (R)-(5-(1,5-dimethyl-1H-pyrazol-3-yl)-1,3,4-oxadiazol-2-yl)(4-(4-methylpyrazolo[1,5-a]pyridin-2-yl)-6,7-dihydro-1H-imidazo[4,5-c]pyridin-5(4H)-yl)methanone] gave an AC50 greater than 5 µM. For `CC(C)n1nccc1C(=O)N1CCc2[nH]cnc2[C@H]1c1cc2ccccn2n1` [Example 856, (S)-(1-isopropyl-1H-pyrazol-5-yl)(4-(pyrazolo[1,5-a]pyridin-2-yl)-6,7-dihydro-1H-imidazo[4,5-c]pyridin-5(4H)-yl)methanone], the AC50 was less than 0.5 µM. Work on `CC(C)n1nccc1C(=O)N1CCc2[nH]cnc2[C@H]1c1cc2c(F)cccn2n1` [Example 858, (S)-(4-(4-fluoropyrazolo[1,5-a]pyridin-2-yl)-6,7-dihydro-1H-imidazo[4,5-c]pyridin-5(4H)-yl)(1-isopropyl-1H-pyrazol-5-yl)methanone] yielded an AC50 of less than 0.5 µM. Compound `Cc1cccn2nc([C@@H]3c4nc[nH]c4CCN3C(=O)c3ccnn3C3CC3)cc12` [Example 860, (S)-(1-cyclopropyl-1H-pyrazol-5-yl)(4-(4-methylpyrazolo[1,5-a]pyridin-2-yl)-6,7-dihydro-1H-imidazo[4,5-c]pyridin-5(4H)-yl)methanone] has an AC50 of less than 0.5 µM. `Cc1cccn2nc([C@@H]3c4nc[nH]c4CCN3C(=O)c3ccnn3-c3ccccn3)cc12` [Example 862, (S)-(4-(4-methylpyrazolo[1,5-a]pyridin-2-yl)-6,7-dihydro-1H-imidazo[4,5-c]pyridin-5(4H)-yl)(1-(pyridin-2-yl)-1H-pyrazol-5-yl)methanone] showed an AC50 of less than 0.5 µM. For `Cn1nc(C(F)F)cc1C(=O)N1CCc2[nH]cnc2[C@H]1c1cc2c(F)cccn2n1` [Example 864, (S)-(3-(difluoromethyl)-1-methyl-1H-pyrazol-5-yl)(4-(4-fluoropyrazolo[1,5-a]pyridin-2-yl)-6,7-dihydro-1H-imidazo[4,5-c]pyridin-5(4H)-yl)methanone], the AC50 was less than 0.5 µM. Work on `Cn1cncc1-c1nc(C(F)F)c(C(=O)N2CCc3[nH]cnc3[C@@H]2c2cc3ccccn3n2)o1` [Example 868, (R)-(4-(difluoromethyl)-2-(1-methyl-1H-imidazol-5-yl)oxazol-5-yl)(4-(pyrazolo[1,5-a]pyridin-2-yl)-6,7-dihydro-1H-imidazo[4,5-c]pyridin-5(4H)-yl)methanone] yielded an AC50 greater than 5 µM. In the case of `Cn1cncc1-c1nc(C(F)F)c(C(=O)N2CCc3[nH]cnc3[C@H]2c2cc3ccccn3n2)o1` [Example 869, (S)-(4-(difluoromethyl)-2-(1-methyl-1H-imidazol-5-yl)oxazol-5-yl)(4-(pyrazolo[1,5-a]pyridin-2-yl)-6,7-dihydro-1H-imidazo[4,5-c]pyridin-5(4H)-yl)methanone], the AC50 is reported as 0.5 to 1 µM. `Cc1ccc(-c2nnc(C(=O)N3CCc4[nH]cnc4[C@@H]3c3cc4c(C)cccn4n3)o2)nc1` [Example 870, (R)-(4-(4-methylpyrazolo[1,5-a]pyridin-2-yl)-6,7-dihydro-1H-imidazo[4,5-c]pyridin-5(4H)-yl)(5-(5-methylpyridin-2-yl)-1,3,4-oxadiazol-2-yl)methanone] showed an AC50 greater than 5 µM. `Cc1ccc(-c2nnc(C(=O)N3CCc4[nH]cnc4[C@H]3c3cc4c(C)cccn4n3)o2)nc1` [Example 871, (S)-(4-(4-methylpyrazolo[1,5-a]pyridin-2-yl)-6,7-dihydro-1H-imidazo[4,5-c]pyridin-5(4H)-yl)(5-(5-methylpyridin-2-yl)-1,3,4-oxadiazol-2-yl)methanone] showed an AC50 of less than 0.5 µM. `Cc1cccn2nc([C@H]3c4nc[nH]c4CCN3C(=O)c3nnc(-c4ccc(C(F)(F)F)cn4)o3)cc12` [Example 872, (R)-(4-(4-methylpyrazolo[1,5-a]pyridin-2-yl)-6,7-dihydro-1H-imidazo[4,5-c]pyridin-5(4H)-yl)(5-(5-(trifluoromethyl)pyridin-2-yl)-1,3,4-oxadiazol-2-yl)methanone] gave an AC50 greater than 5 µM. `Cc1cccn2nc([C@@H]3c4nc[nH]c4CCN3C(=O)c3nnc(-c4ccc(C(F)(F)F)cn4)o3)cc12` [Example 873, (S)-(4-(4-methylpyrazolo[1,5-a]pyridin-2-yl)-6,7-dihydro-1H-imidazo[4,5-c]pyridin-5(4H)-yl)(5-(5-(trifluoromethyl)pyridin-2-yl)-1,3,4-oxadiazol-2-yl)methanone] showed an AC50 of 0.5 to 1 µM. In the case of `Cc1cccn2nc([C@@H]3c4nc[nH]c4CCN3C(=O)c3nnc(-c4ccc(F)cn4)o3)cc12` [Example 875, (S)-(5-(5-fluoropyridin-2-yl)-1,3,4-oxadiazol-2-yl)(4-(4-methylpyrazolo[1,5-a]pyridin-2-yl)-6,7-dihydro-1H-imidazo[4,5-c]pyridin-5(4H)-yl)methanone], the AC50 is reported as less than 0.5 µM. `Cc1ccc(-c2nnc(C(=O)N3CCc4[nH]cnc4[C@@H]3c3cc4c(F)cccn4n3)o2)nc1` [Example 876, (R)-(4-(4-fluoropyrazolo[1,5-a]pyridin-2-yl)-6,7-dihydro-1H-imidazo[4,5-c]pyridin-5(4H)-yl)(5-(5-methylpyridin-2-yl)-1,3,4-oxadiazol-2-yl)methanone] gave an AC50 greater than 5 µM. In the case of `Cc1ccc(-c2nnc(C(=O)N3CCc4[nH]cnc4[C@H]3c3cc4c(F)cccn4n3)o2)nc1` [Example 877, (S)-(4-(4-fluoropyrazolo[1,5-a]pyridin-2-yl)-6,7-dihydro-1H-imidazo[4,5-c]pyridin-5(4H)-yl)(5-(5-methylpyridin-2-yl)-1,3,4-oxadiazol-2-yl)methanone], the AC50 is reported as less than 0.5 µM. Compound `O=C(c1nnc(-c2ccc(C(F)(F)F)cn2)o1)N1CCc2[nH]cnc2[C@@H]1c1cc2c(F)cccn2n1` [Example 878, (R)-(4-(4-fluoropyrazolo[1,5-a]pyridin-2-yl)-6,7-dihydro-1H-imidazo[4,5-c]pyridin-5(4H)-yl)(5-(5-(trifluoromethyl)pyridin-2-yl)-1,3,4-oxadiazol-2-yl)methanone] has an AC50 greater than 5 µM. In the case of `O=C(c1nnc(-c2ccc(C(F)(F)F)cn2)o1)N1CCc2[nH]cnc2[C@H]1c1cc2c(F)cccn2n1` [Example 879, (S)-(4-(4-fluoropyrazolo[1,5-a]pyridin-2-yl)-6,7-dihydro-1H-imidazo[4,5-c]pyridin-5(4H)-yl)(5-(5-(trifluoromethyl)pyridin-2-yl)-1,3,4-oxadiazol-2-yl)methanone], the AC50 is reported as less than 0.5 µM. Work on `O=C(c1nnc(-c2ccc(F)cn2)o1)N1CCc2[nH]cnc2[C@@H]1c1cc2c(F)cccn2n1` [Example 880, (R)-(4-(4-fluoropyrazolo[1,5-a]pyridin-2-yl)-6,7-dihydro-1H-imidazo[4,5-c]pyridin-5(4H)-yl)(5-(5-fluoropyridin-2-yl)-1,3,4-oxadiazol-2-yl)methanone] yielded an AC50 greater than 5 µM. `O=C(c1nnc(-c2ccc(F)cn2)o1)N1CCc2[nH]cnc2[C@H]1c1cc2c(F)cccn2n1` [Example 881, (S)-(4-(4-fluoropyrazolo[1,5-a]pyridin-2-yl)-6,7-dihydro-1H-imidazo[4,5-c]pyridin-5(4H)-yl)(5-(5-fluoropyridin-2-yl)-1,3,4-oxadiazol-2-yl)methanone] was tested, and the AC50 was less than 0.5 µM. Work on `Cc1cc(-c2nnc(C(=O)N3CCc4[nH]cnc4[C@@H]3c3cc4c(F)cccn4n3)o2)nn1C` [Example 882, (R)-(5-(1,5-dimethyl-1H-pyrazol-3-yl)-1,3,4-oxadiazol-2-yl)(4-(4-fluoropyrazolo[1,5-a]pyridin-2-yl)-6,7-dihydro-1H-imidazo[4,5-c]pyridin-5(4H)-yl)methanone] yielded an AC50 greater than 5 µM. `Cn1nccc1C(=O)N1CCc2[nH]cnc2[C@H]1c1cc2c(F)cccn2n1` [Example 884, (S)-(4-(4-fluoropyrazolo[1,5-a]pyridin-2-yl)-6,7-dihydro-1H-imidazo[4,5-c]pyridin-5(4H)-yl)(1-methyl-1H-pyrazol-5-yl)methanone] showed an AC50 of 0.5 to 1 µM. With `COc1cccn2nc([C@@H]3c4nc[nH]c4CCN3C(=O)c3cc(C(F)F)nn3C)cc12` [Example 886, (S)-(3-(difluoromethyl)-1-methyl-1H-pyrazol-5-yl)(4-(4-methoxypyrazolo[1,5-a]pyridin-2-yl)-6,7-dihydro-1H-imidazo[4,5-c]pyridin-5(4H)-yl)methanone] the AC50 was less than 0.5 µM.
